Reference: ChEMBL document CHEMBL4334526, “Synthesis of Peptoid-Based Class I-Selective Histone Deacetylase Inhibitors with Chemosensitizing Properties” (J Med Chem, 2019)

Assays:
[1] = molecular target: T1, Class 1 histone deacetylase (Homo sapiens, UniProt Q13547+O15379+Q92769+Q9BY41); assay: Inhibition of class 1 HDAC in human Cal27CisR cells assessed as potentiation of cisplatin-induced cytotoxicity by measuring combination index at […] in presence of 1 uM cisplatin by MTT assay based Chou-Talalay analysis; type: cell-based
[2] = molecular target: T1, Class 1 histone deacetylase; assay: Inhibition of class 1 HDAC in human Cal27CisR cells assessed as potentiation of cisplatin-induced cytotoxicity by measuring combination index at 1 uM in presence of […] cisplatin by MTT assay based Chou-Talalay analysis; type: cell-based
[3] = molecular target: T1, Class 1 histone deacetylase; assay: (§1) Inhibition of class 1 HDAC in human CAL27 cells assessed as potentiation of cisplatin-induced cytotoxicity by measuring combination index at 1 uM in presence of […] cisplatin by MTT assay based Chou-Talalay analysis; type: cell-based; conditions: CAL-27
[4] = molecular target: T1, Class 1 histone deacetylase; assay: Inhibition of class 1 HDAC in human CAL27 cells assessed as potentiation of cisplatin-induced cytotoxicity by measuring combination index at […] in presence of 1 uM cisplatin by MTT assay based Chou-Talalay analysis; type: cell-based; conditions: CAL-27
[5] = molecular target: T1, Class 1 histone deacetylase; assay: Inhibition of class 1 HDAC in human CAL27 cells assessed as potentiation of cisplatin-induced cytotoxicity by measuring combination index at 1 uM in presence of 0.10 uM cisplatin by MTT assay based Chou-Talalay analysis; type: cell-based; conditions: CAL-27
[6] = molecular target: T1, Class 1 histone deacetylase; assay: Inhibition of class 1 HDAC in human Cal27CisR cells assessed as potentiation of cisplatin-induced cytotoxicity by measuring combination index at […] in presence of […] cisplatin by MTT assay based Chou-Talalay analysis; type: cell-based
[7] = molecular target: T1, Class 1 histone deacetylase; assay: as §1; type: cell-based; conditions: CAL-27; remark: listed apart in the source
[8] = molecular target: T1, Class 1 histone deacetylase; assay: Inhibition of class 1 HDAC in human Cal27CisR cells assessed as potentiation of cisplatin-induced cytotoxicity by measuring combination index at 1 uM in presence of 10 uM cisplatin by MTT assay based Chou-Talalay analysis; type: cell-based
[9] = molecular target: T1, Class 1 histone deacetylase; assay: Inhibition of class 1 HDAC in human Cal27CisR cells assessed as potentiation of cisplatin-induced cytotoxicity by measuring combination index at 1 uM in presence of 100 uM cisplatin by MTT assay based Chou-Talalay analysis; type: cell-based
[10] = molecular target: T1, Class 1 histone deacetylase; assay: Inhibition of class 1 HDAC in human CAL27 cells assessed as potentiation of cisplatin-induced cytotoxicity by measuring combination index at […] in presence of 10 uM cisplatin by MTT assay based Chou-Talalay analysis; type: cell-based; conditions: CAL-27
[11] = molecular target: T1, Class 1 histone deacetylase; assay: (§2) Inhibition of class 1 HDAC in human CAL27 cells assessed as potentiation of cisplatin-induced cytotoxicity by measuring combination index at […] in presence of […] cisplatin by MTT assay based Chou-Talalay analysis; type: cell-based; conditions: CAL-27
[12] = molecular target: T1, Class 1 histone deacetylase; assay: Inhibition of class 1 HDAC in human CAL27 cells assessed as potentiation of cisplatin-induced cytotoxicity by measuring combination index at […] in presence of 0.1 uM cisplatin by MTT assay based Chou-Talalay analysis; type: cell-based; conditions: CAL-27
[13] = molecular target: T1, Class 1 histone deacetylase; assay: Inhibition of class 1 HDAC in human CAL27 cells assessed as potentiation of cisplatin-induced cytotoxicity by measuring combination index at 1 uM in presence of 10 uM cisplatin by MTT assay based Chou-Talalay analysis; type: cell-based; conditions: CAL-27
Histone deacetylase 2 = Histone deacetylase 2 (Homo sapiens, UniProt Q92769); assay: Inhibition of recombinant human full length C-terminal FLAG-tagged HDAC2 expressed in baculovirus infected Sf9 insect cells using Boc-Lys(epsilon-acetyl)-AMC as substrate incubated for 90 mins by fluorescence assay; type: cell-based
[14] = molecular target: T1, Class 1 histone deacetylase; assay: Inhibition of class 1 HDAC in human CAL27 cells assessed as potentiation of cisplatin-induced cytotoxicity by measuring cisplatin IC50 at 5 uM preincubated for 48 hrs followed by cisplatin addition and measured after 72 hrs by MTT assay (reference value: 9.79 uM); type: cell-based; conditions: cal-27
[15] = molecular target: T1, Class 1 histone deacetylase; assay: Inhibition of class 1 HDAC in human CAL27 cells assessed as potentiation of cisplatin-induced cytotoxicity by measuring combination index at 1 uM in presence of 1 uM cisplatin by MTT assay based Chou-Talalay analysis; type: cell-based; conditions: CAL-27
[16] = molecular target: T1, Class 1 histone deacetylase; assay: Inhibition of class 1 HDAC in human Cal27CisR cells assessed as potentiation of cisplatin-induced cytotoxicity by measuring combination index at 1 uM in presence of 1 uM cisplatin by MTT assay based Chou-Talalay analysis; type: cell-based
[17] = molecular target: T1, Class 1 histone deacetylase; assay: as §2; type: cell-based; conditions: CAL-27; remark: listed apart in the source
[18] = molecular target: T1, Class 1 histone deacetylase; conditions: CAL-27
Description: Inhibition of class 1 HDAC in human CAL27 cells assessed as potentiation of cisplatin-induced cytotoxicity by measuring combination index at 0.25 uM in presence of 1 uM cisplatin by MTT assay based Chou-Talalay analysis

[19] = molecular target: T1, Class 1 histone deacetylase
Description: Inhibition of class 1 HDAC in human Cal27CisR cells assessed as potentiation of cisplatin-induced cytotoxicity by measuring combination index at 0.5 uM in presence of 100 uM cisplatin by MTT assay based Chou-Talalay analysis

[20] = molecular target: T1, Class 1 histone deacetylase; conditions: CAL-27; remark: listed apart in the source
Description: Inhibition of class 1 HDAC in human CAL27 cells assessed as potentiation of cisplatin-induced cytotoxicity by measuring combination index at 0.5 uM in presence of 3.2 uM cisplatin by MTT assay based Chou-Talalay analysis

[21] = molecular target: T1, Class 1 histone deacetylase; remark: listed apart in the source
Description: Inhibition of class 1 HDAC in human Cal27CisR cells assessed as potentiation of cisplatin-induced cytotoxicity by measuring combination index at 0.5 uM in presence of 10 uM cisplatin by MTT assay based Chou-Talalay analysis

[22] = molecular target: Histone deacetylase 3/Nuclear receptor corepressor 2 (HDAC3/NCoR2) (Homo sapiens, UniProt O15379); assay: biochemical; type: cell-based, Sf9
Description: Inhibition of human recombinant full length C-terminal His-tagged HDAC3 (1 to 428 residues)/N-terminal GST-tagged NCOR2 (395 to 489 residues) expressed in baculovirus infected Sf9 insect cells using Boc-Lys(epsilon-acetyl)-AMC as substrate incubated for 90 mins by fluorescence assay

[23] = molecular target: T1, Class 1 histone deacetylase; remark: listed apart in the source
Description: Inhibition of class 1 HDAC in human Cal27CisR cells assessed as potentiation of cisplatin-induced cytotoxicity by measuring combination index at 0.5 uM in presence of 1 uM cisplatin by MTT assay based Chou-Talalay analysis

[24] = molecular target: T1, Class 1 histone deacetylase; conditions: CAL-27; remark: listed apart in the source
Description: Inhibition of class 1 HDAC in human CAL27 cells assessed as potentiation of cisplatin-induced cytotoxicity by measuring combination index at 0.5 uM in presence of 0.1 uM cisplatin by MTT assay based Chou-Talalay analysis

[25] = molecular target: T1, Class 1 histone deacetylase; remark: listed apart in the source
Description: Inhibition of class 1 HDAC in human Cal27CisR cells assessed as potentiation of cisplatin-induced cytotoxicity by measuring combination index at 0.5 uM in presence of 3.2 uM cisplatin by MTT assay based Chou-Talalay analysis

[26] = molecular target: T1, Class 1 histone deacetylase; conditions: CAL-27; remark: listed apart in the source
Description: Inhibition of class 1 HDAC in human CAL27 cells assessed as potentiation of cisplatin-induced cytotoxicity by measuring combination index at 0.25 uM in presence of 0.1 uM cisplatin by MTT assay based Chou-Talalay analysis

[27] = molecular target: T1, Class 1 histone deacetylase; remark: listed apart in the source
Description: Inhibition of class 1 HDAC in human Cal27CisR cells assessed as potentiation of cisplatin-induced cytotoxicity by measuring combination index at 0.25 uM in presence of 1 uM cisplatin by MTT assay based Chou-Talalay analysis

[28] = molecular target: T1, Class 1 histone deacetylase; conditions: CAL-27; remark: listed apart in the source
Description: Inhibition of class 1 HDAC in human CAL27 cells assessed as potentiation of cisplatin-induced cytotoxicity by measuring combination index at 0.5 uM in presence of 0.32 uM cisplatin by MTT assay based Chou-Talalay analysis

[29] = molecular target: T1, Class 1 histone deacetylase; conditions: CAL-27; remark: listed apart in the source
Description: Inhibition of class 1 HDAC in human CAL27 cells assessed as potentiation of cisplatin-induced cytotoxicity by measuring combination index at 0.5 uM in presence of 1 uM cisplatin by MTT assay based Chou-Talalay analysis

[30] = Induction of apoptosis in human Cal27CisR cells assessed as caspase-3/7 activation at […] measured after 48 hrs by CellEvent caspase 3/7 green detection reagent/Hoechst 33342 staining based imaging analysis relative to control; type: functional
[31] = molecular target: T1, Class 1 histone deacetylase; assay: Inhibition of class 1 HDAC in human CAL27 cells assessed as potentiation of cisplatin-induced cytotoxicity by measuring fold reduction in cisplatin IC50 at […] preincubated for 48 hrs followed by cisplatin addition and measured after 72 hrs by MTT assay relative to cisplatin IC50; type: cell-based; conditions: CAL-27

T1 sequence (O15379 whole entry, looked up): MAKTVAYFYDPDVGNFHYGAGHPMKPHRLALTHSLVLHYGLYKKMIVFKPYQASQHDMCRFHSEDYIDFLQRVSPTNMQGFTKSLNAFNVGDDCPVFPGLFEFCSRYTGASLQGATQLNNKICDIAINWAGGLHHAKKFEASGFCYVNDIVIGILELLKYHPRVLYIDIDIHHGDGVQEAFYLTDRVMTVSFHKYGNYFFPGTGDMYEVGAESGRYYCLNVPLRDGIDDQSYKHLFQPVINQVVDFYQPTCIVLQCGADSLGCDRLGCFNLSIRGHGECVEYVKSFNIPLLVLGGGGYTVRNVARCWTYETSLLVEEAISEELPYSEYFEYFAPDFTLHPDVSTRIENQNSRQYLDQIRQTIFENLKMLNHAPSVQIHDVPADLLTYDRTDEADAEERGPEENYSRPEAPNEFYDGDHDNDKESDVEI
T1 sequence (Q13547 whole entry, looked up): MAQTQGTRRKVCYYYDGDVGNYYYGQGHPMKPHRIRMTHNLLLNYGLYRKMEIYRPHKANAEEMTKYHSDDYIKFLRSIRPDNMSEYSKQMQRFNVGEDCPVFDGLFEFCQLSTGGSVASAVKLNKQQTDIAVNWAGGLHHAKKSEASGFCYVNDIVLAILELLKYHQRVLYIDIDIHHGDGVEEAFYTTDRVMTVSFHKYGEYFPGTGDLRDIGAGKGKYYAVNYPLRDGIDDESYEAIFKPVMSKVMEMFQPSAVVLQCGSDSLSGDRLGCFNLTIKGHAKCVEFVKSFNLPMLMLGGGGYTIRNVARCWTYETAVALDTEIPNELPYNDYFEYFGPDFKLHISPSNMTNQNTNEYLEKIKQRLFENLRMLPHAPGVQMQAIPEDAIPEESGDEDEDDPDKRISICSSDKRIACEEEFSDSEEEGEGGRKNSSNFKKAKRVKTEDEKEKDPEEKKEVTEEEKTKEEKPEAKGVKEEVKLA
T1 sequence (Q92769 whole entry, looked up): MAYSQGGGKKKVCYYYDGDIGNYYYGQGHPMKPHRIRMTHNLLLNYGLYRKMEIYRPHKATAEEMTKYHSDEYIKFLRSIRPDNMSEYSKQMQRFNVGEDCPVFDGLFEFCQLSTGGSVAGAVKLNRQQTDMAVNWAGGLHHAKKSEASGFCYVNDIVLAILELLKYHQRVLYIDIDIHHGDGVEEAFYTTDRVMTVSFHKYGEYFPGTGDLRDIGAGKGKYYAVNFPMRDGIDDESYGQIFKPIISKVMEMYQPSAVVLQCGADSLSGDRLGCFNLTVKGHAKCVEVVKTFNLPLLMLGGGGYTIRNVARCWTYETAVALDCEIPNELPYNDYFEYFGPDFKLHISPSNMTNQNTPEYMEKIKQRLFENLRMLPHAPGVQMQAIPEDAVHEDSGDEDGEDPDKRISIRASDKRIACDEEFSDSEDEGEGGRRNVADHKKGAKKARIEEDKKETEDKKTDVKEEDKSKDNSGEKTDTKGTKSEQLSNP
T1 sequence (Q9BY41 whole entry, looked up): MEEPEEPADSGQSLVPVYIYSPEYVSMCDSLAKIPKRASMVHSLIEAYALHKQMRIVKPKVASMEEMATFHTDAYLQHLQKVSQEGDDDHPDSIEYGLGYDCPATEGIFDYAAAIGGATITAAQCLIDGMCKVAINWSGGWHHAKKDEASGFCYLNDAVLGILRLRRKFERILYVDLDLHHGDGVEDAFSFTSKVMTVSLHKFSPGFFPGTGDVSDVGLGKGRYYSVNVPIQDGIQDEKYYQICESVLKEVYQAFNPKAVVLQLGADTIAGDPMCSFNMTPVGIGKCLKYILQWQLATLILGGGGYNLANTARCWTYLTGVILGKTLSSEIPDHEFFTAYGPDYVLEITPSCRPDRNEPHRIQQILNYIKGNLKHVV
Chain of Histone deacetylase 3/Nuclear receptor corepressor 2 (HDAC3/NCoR2) (O15379 whole entry): as the sequence (O15379 whole entry, looked up) above
Chain of Histone deacetylase 3/Nuclear receptor corepressor 2 (HDAC3/NCoR2) (Q9Y618 whole entry, further chain): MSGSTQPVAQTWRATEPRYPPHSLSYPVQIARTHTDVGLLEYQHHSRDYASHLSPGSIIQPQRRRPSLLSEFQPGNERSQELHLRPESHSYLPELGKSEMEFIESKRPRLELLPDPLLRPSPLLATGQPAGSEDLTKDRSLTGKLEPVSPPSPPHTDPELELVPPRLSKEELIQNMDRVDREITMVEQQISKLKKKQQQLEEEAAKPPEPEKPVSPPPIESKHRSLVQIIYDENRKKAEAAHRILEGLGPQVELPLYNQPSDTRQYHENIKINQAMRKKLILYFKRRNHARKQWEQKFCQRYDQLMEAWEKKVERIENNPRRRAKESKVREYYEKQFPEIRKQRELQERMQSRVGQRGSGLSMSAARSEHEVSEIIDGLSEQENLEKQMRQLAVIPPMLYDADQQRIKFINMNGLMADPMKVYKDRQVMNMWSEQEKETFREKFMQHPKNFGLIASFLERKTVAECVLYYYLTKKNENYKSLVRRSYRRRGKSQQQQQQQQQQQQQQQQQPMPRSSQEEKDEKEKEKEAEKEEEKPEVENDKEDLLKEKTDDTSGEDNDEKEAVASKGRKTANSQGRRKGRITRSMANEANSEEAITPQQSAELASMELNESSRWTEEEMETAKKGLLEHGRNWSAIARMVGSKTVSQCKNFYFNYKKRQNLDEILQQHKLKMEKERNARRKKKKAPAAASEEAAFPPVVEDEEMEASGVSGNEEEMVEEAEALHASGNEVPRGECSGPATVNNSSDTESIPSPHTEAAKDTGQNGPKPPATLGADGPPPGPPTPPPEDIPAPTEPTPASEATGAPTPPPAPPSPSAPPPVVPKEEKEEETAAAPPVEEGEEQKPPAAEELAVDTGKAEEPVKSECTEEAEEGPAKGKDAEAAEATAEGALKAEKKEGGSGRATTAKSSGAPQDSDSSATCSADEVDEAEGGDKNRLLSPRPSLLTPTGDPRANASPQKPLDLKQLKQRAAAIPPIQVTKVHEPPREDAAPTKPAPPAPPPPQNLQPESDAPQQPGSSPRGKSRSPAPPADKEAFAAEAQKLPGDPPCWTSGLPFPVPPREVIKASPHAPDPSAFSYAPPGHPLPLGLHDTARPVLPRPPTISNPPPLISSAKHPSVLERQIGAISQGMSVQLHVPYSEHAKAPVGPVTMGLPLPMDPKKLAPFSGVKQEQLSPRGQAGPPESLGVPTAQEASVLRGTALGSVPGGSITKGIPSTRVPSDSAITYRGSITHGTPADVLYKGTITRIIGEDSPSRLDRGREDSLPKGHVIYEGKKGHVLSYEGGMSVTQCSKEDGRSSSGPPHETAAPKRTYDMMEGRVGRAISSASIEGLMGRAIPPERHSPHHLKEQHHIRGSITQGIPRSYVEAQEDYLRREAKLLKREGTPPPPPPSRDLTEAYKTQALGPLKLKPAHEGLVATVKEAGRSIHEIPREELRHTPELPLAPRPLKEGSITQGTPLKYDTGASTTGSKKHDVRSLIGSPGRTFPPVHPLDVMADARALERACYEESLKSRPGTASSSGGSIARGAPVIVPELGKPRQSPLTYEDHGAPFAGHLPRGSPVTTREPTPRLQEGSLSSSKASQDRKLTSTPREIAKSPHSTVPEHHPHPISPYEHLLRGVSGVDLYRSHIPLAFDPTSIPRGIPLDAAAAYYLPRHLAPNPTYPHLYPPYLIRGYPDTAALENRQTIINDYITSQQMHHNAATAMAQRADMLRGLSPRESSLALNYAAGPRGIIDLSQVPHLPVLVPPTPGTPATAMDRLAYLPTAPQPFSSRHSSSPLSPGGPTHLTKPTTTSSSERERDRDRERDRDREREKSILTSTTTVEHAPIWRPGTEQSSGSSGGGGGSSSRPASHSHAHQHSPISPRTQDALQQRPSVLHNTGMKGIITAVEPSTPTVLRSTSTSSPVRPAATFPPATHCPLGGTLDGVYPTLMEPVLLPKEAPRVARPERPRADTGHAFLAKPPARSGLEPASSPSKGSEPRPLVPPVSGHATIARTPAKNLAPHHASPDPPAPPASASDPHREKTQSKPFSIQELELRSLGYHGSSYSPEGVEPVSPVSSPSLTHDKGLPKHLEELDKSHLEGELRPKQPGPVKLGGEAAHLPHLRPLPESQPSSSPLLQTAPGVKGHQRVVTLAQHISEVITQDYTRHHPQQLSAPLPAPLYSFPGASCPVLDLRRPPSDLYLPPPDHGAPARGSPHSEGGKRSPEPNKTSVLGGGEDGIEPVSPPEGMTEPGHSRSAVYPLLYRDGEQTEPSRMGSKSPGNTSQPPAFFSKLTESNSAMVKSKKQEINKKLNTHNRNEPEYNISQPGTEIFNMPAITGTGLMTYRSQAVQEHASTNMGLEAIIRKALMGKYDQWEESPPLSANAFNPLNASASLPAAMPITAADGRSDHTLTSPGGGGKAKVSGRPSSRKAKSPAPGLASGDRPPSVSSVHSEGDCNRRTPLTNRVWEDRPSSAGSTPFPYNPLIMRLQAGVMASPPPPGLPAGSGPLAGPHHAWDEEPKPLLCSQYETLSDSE
Chain of Histone deacetylase 2 (Q92769 whole entry): as the sequence (Q92769 whole entry, looked up) above

IC50 (Histone deacetylase 2)	SMILES	CI [1]	CI [2]	CI [3]	CI [4]	CI [5]	CI [6]	CI [7]	CI [8]	CI [9]	CI [10]	CI [11]	CI [12]	CI [13]	CI [15]	CI [16]	CI [17]	CI [19]	CI [20]	CI [21]	also measured
1.81 µM	Cc1cc(C)cc(C(=O)N(CCCCCC(=O)Nc2cc(-c3ccccc3)ccc2N)CC(=O)NCc2ccccc2)c1	< 0.2	< 0.2	< 0.2	< 0.2	< 0.2	< 0.2	< 0.2	< 0.2	0.06	0.12	0.25	< 0.2	0.53	< 0.2	< 0.2	< 0.2	–	–	–	IC50 [14]: 1.86 µM
0.283 µM	CN(C)c1ccc(C(=O)N(CC(=O)NCc2ccccc2)Cc2ccc(C(=O)Nc3ccccc3N)cc2)cc1	–	–	–	–	–	–	–	–	–	–	–	–	–	–	–	–	0.07	0.07	0.12	CI [18]: 0.11; IC50 [22]: 0.586 µM; CI [23]: 0.33; CI [24]: 0.4; CI [25]: 0.25; CI [26]: 0.56; CI [27]: 0.76; CI [28]: 0.32; CI [29]: 0.16
–	Cc1cc(C)cc(C(=O)N(CC(=O)NCc2ccccc2)Cc2ccc(C(=O)Nc3cc(-c4ccccc4)ccc3N)cc2)c1	< 0.2	0.81	0.2	0.23	0.42	0.89	0.52	0.5	0.08	0.08	0.14	0.39	0.16	0.46	< 0.2	0.34	0.1	0.21	0.76	IC50 [22]: > 10 µM; CI [23]: 0.77; Activity [30]: 5.96%; CI [24]: 0.5; CI [25]: < 0.2; Ratio IC50 [31]: 5.26; CI [28]: 0.7; CI [29]: 0.59
